# Results reported in ChEMBL document CHEMBL1201862, “PubChem BioAssay data set” (2004).
#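 48-hour exposure; five concentrations; linearly interpolated endpoints. At the GI50, growth is halved.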 Active and inactive are the calls of the source. Cut-off read from the data, not from the text of the source: active = GI50 up to about 1.1 µM and inactive = higher.
# Tests used:
# Assay in all cases: NCI-60 cell line screen, 48 h
# 786-0 = tested on: 786-0
# A498 = tested on: A498
# A549 = tested on: A549
# ACHN = tested on: ACHN
# BT-549 = tested on: BT-549
# CAKI-1 = tested on: CAKI-1
# CCRF-CEM = tested on: CCRF-CEM
# COLO 205 = tested on: COLO 205
# DU-145 = tested on: DU-145
# EKVX = tested on: EKVX
# HCC 2998 = tested on: HCC 2998
# HCT-116 = tested on: HCT-116
# HCT-15 = tested on: HCT-15
# HL-60 = tested on: HL-60
# HOP-62 = tested on: HOP-62
# HOP-92 = tested on: HOP-92
# HT-29 = tested on: HT-29
# Hs-578T = tested on: Hs-578T
# IGROV-1 = tested on: IGROV-1
# K562 = tested on: K562
# KM12 = tested on: KM12
# LOX IMVI = tested on: LOX IMVI
# M14 = tested on: M14
# MCF7 = tested on: MCF7
# MDA-MB-231 = tested on: MDA-MB-231
# MDA-MB-435 = tested on: MDA-MB-435
# MDA-N = tested on: MDA-N
# MOLT-4 = tested on: MOLT-4
# Malme-3M = tested on: Malme-3M
# NCI-H226 = tested on: NCI-H226
# NCI-H23 = tested on: NCI-H23
# NCI-H460 = tested on: NCI-H460
# NCI-H522 = tested on: NCI-H522
# NCI/ADR-RES = tested on: NCI/ADR-RES
# OVCAR-3 = tested on: OVCAR-3
# OVCAR-4 = tested on: OVCAR-4
# OVCAR-5 = tested on: OVCAR-5
# OVCAR-8 = tested on: OVCAR-8
# PC-3 = tested on: PC-3
# RPMI-8226 = tested on: RPMI-8226
# RXF 393 = tested on: RXF 393
# SF-268 = tested on: SF-268
# SF-295 = tested on: SF-295
# SF-539 = tested on: SF-539
# SK-MEL-28 = tested on: SK-MEL-28
# SK-MEL-2 = tested on: SK-MEL-2
# SK-MEL-5 = tested on: SK-MEL-5
# SK-OV-3 = tested on: SK-OV-3
# SN12C = tested on: SN12C
# SNB-19 = tested on: SNB-19
# SNB-75 = tested on: SNB-75
# SW-620 = tested on: SW-620
# T47D = tested on: T47D
# TK-10 = tested on: TK-10
# U-251 = tested on: U-251
# UACC-257 = tested on: UACC-257
# UACC-62 = tested on: UACC-62
# UO-31 = tested on: UO-31
smiles,measurement,setting,value
O=C(Nc1cccc(C(=O)NCCCO)c1)/C(=C/c1ccccc1)NC(=O)c1ccccc1,GI50,786-0,> 100 µM (inactive)
same,GI50,A498,> 100 µM (inactive)
same,GI50,A549,> 100 µM (inactive)
same,GI50,ACHN,> 100 µM (inactive)
same,GI50,BT-549,> 100 µM (inactive)
same,GI50,CAKI-1,> 100 µM (inactive)
same,GI50,CCRF-CEM,> 100 µM (inactive)
same,GI50,COLO 205,> 100 µM (inactive)
same,GI50,DU-145,> 100 µM (inactive)
same,GI50,EKVX,> 100 µM (inactive)
same,GI50,HCC 2998,> 100 µM (inactive)
same,GI50,HCT-116,> 100 µM (inactive)
same,GI50,HCT-15,> 100 µM
same,GI50,HL-60,> 100 µM (inactive)
same,GI50,HOP-62,> 100 µM (inactive)
same,GI50,HOP-92,> 100 µM (inactive)
same,GI50,HT-29,> 100 µM (inactive)
same,GI50,Hs-578T,> 100 µM (inactive)
same,GI50,IGROV-1,> 100 µM (inactive)
same,GI50,K562,> 100 µM (inactive)
same,GI50,KM12,> 100 µM (inactive)
same,GI50,LOX IMVI,> 100 µM (inactive)
same,GI50,M14,> 100 µM (inactive)
same,GI50,MCF7,> 100 µM (inactive)
same,GI50,MDA-MB-231,> 100 µM (inactive)
same,GI50,MDA-MB-435,> 100 µM (inactive)
same,GI50,MDA-N,> 100 µM (inactive)
same,GI50,MOLT-4,84.1 µM (inactive)
same,GI50,Malme-3M,> 100 µM (inactive)
same,GI50,NCI-H226,> 100 µM (inactive)
same,GI50,NCI-H23,> 100 µM (inactive)
same,GI50,NCI-H460,> 100 µM (inactive)
same,GI50,NCI-H522,> 100 µM (inactive)
same,GI50,NCI/ADR-RES,> 100 µM (inactive)
same,GI50,OVCAR-3,> 100 µM (inactive)
same,GI50,OVCAR-4,> 100 µM (inactive)
same,GI50,OVCAR-5,> 100 µM (inactive)
same,GI50,OVCAR-8,> 100 µM (inactive)
same,GI50,PC-3,> 100 µM (inactive)
same,GI50,RPMI-8226,> 100 µM (inactive)
same,GI50,RXF 393,> 100 µM (inactive)
same,GI50,SF-268,> 100 µM (inactive)
same,GI50,SF-295,> 100 µM (inactive)
same,GI50,SF-539,> 100 µM (inactive)
same,GI50,SK-MEL-28,> 100 µM (inactive)
same,GI50,SK-MEL-2,> 100 µM (inactive)
same,GI50,SK-MEL-5,> 100 µM (inactive)
same,GI50,SK-OV-3,> 100 µM (inactive)
same,GI50,SN12C,> 100 µM (inactive)
same,GI50,SNB-19,> 100 µM (inactive)
same,GI50,SNB-75,> 100 µM (inactive)
same,GI50,SW-620,> 100 µM (inactive)
same,GI50,T47D,> 100 µM (inactive)
same,GI50,TK-10,> 100 µM (inactive)
same,GI50,U-251,> 100 µM (inactive)
same,GI50,UACC-257,> 100 µM (inactive)
same,GI50,UACC-62,> 100 µM (inactive)
same,GI50,UO-31,> 100 µM (inactive)
